This is an account of results in PubChem BioAssay (NCI).

Values joined by “and” are separate entries in the source; they are usually repeats but may differ in a detail not shown here. Identical values can stand only once.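 Protocol summary: plate cells (96-well), add compound at 5 concentrations, incubate 48 h, interpolate endpoints linearly. Here, GI50 denotes the concentration required for 50% inhibition of growth. TGI marks complete inhibition of growth.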 *1 amine or outer side, *2 acyl side, *3 side chain or, on linkers, in order; H or OH if unused. Where a SMILES comes first, the peptide text is derived from it. [ ]: non-standard residue; d: D form. The star is where a group is joined. X31 = CC(=O)N(C)SCC(N[*:1])C(=O)[*:2]; Fmoc = O=C(OCC1c2ccccc2-c2ccccc21)*; For = O=C*

Test systems include OVCAR-8 ovarian; OVCAR-3 ovarian; SF-268 CNS; SF-295 CNS; MDA-MB-231 breast; SW-620 colon; NCI/ADR-RES ovarian; TK-10 renal; MCF7 breast; OVCAR-5 ovarian; A498 renal; K-562 leukemia; MDA-MB-435; HCC-2998 colon.
Holding throughout (experiment): NCI anticancer screen, dose series, 48 h

Consider `CC(C)(C)N=c1n(C(C)(C)C)oc(=O)n1-c1ccccc1`, for which the TGI with OVCAR-8 ovarian, in the experiment on OVCAR-3 ovarian, with SF-268 CNS, in the experiment on SF-295 CNS, with MDA-MB-231 breast and in the experiment with SW-620 colon was over 50 µM in each case. For the same molecule, the TGI in the experiment on NCI/ADR-RES ovarian, in the experiment on TK-10 renal, in the experiment on MCF7 breast, in the experiment on OVCAR-5 ovarian, in the experiment with A498 renal and in the experiment on K-562 leukemia was over 50 µM in each case. In the experiment with MDA-MB-435, this molecule had a TGI of over 50 µM.

Turning to `Cn1c(=O)sc2cc(C(=S)N3CCN(c4ccccc4)CC3)ccc21`, the TGI in the experiment on OVCAR-8 ovarian is over 100 µM; in the experiment on OVCAR-3 ovarian, over 100 µM; in the experiment with SF-268 CNS, over 100 µM; with SF-295 CNS it was 53.9 µM; in the experiment with MDA-MB-231 breast, over 100 µM; in the experiment on SW-620 colon it was over 100 µM. Moreover, the TGI in the experiment with NCI/ADR-RES ovarian, with TK-10 renal, with MCF7 breast, in the experiment with OVCAR-5 ovarian, with A498 renal and in the experiment on K-562 leukemia was over 100 µM throughout. In the experiment with MDA-MB-435, this molecule had a TGI of over 100 µM.

On to `OC1(c2ccc3ccccc3c2)c2c(c3ccccc3c3ccccc23)C2=NCCN21` (stereo not given), for which the TGI with OVCAR-8 ovarian was over 30.3 µM; with OVCAR-3 ovarian, 36.9 µM; with SF-268 CNS it was 29.2 µM; with SF-295 CNS, 12.2 µM; in the experiment on MDA-MB-231 breast it was over 60.6 µM; in the experiment with SW-620 colon, 23 µM. Moreover, the TGI in the experiment on NCI/ADR-RES ovarian is 5.22 µM; in the experiment with TK-10 renal it was 35.4 µM; with MCF7 breast it was 15.8 µM; with OVCAR-5 ovarian it was over 83.7 µM; with A498 renal it was 44 µM; with K-562 leukemia, over 100 µM. Moreover, the TGI in the experiment with MDA-MB-435 was determined as 5.1 µM.

Turning to `Cn1nc(C(=O)N2CC(CCl)c3c2cc([N+](=O)[O-])c2ccccc32)cc1NC(=O)Nc1cc(C(=O)N2CC(CCl)c3c2cc([N+](=O)[O-])c2ccccc32)nn1C` (stereo not given), the TGI with OVCAR-3 ovarian, in the experiment on SF-268 CNS, in the experiment on SF-295 CNS, in the experiment on MDA-MB-231 breast, with HCC-2998 colon and in the experiment on NCI/ADR-RES ovarian was over 100 µM throughout. Further, the TGI in the experiment on TK-10 renal, with MCF7 breast, in the experiment with OVCAR-5 ovarian, in the experiment on A498 renal, in the experiment with K-562 leukemia and in the experiment with MDA-MB-435 was over 100 µM in each case.

Consider `CCOC(=O)NC(=S)NC(C)c1ccccc1` (stereo not given), for which the TGI in the experiment with OVCAR-8 ovarian, in the experiment on OVCAR-3 ovarian, in the experiment with SF-268 CNS, with SF-295 CNS, in the experiment on MDA-MB-231 breast and with SW-620 colon was over 100 µM in each case. Besides, the TGI in the experiment on HCC-2998 colon, in the experiment with NCI/ADR-RES ovarian, with TK-10 renal, in the experiment with MCF7 breast, with OVCAR-5 ovarian and in the experiment with K-562 leukemia was over 100 µM each time. Besides, the TGI in the experiment on MDA-MB-435 was over 100 µM.

In the case of `COc1cc2c(cc1OCCCCN1CCN(CCCCOc3cc4c(cc3OC)C(=O)N3CCC[C@H]3C=N4)CC1)N=C[C@@H]1CCCN1C2=O`, the TGI in the experiment on OVCAR-8 ovarian is 18.6 µM; in the experiment on OVCAR-3 ovarian, 0.0636 µM; in the experiment with SF-268 CNS, 16.5 µM; in the experiment with SF-295 CNS, 0.242 µM; with MDA-MB-231 breast, 0.182 µM; in the experiment on SW-620 colon it was over 40 µM. The TGI was 16.5 µM with NCI/ADR-RES ovarian; 0.263 µM with TK-10 renal; 45 µM in the experiment with MCF7 breast; 0.163 µM with OVCAR-5 ovarian; 0.0692 µM with A498 renal; over 11.3 µM with K-562 leukemia. The TGI with MDA-MB-435 worked out at 0.165 µM.

For the molecule `CCc1n[nH]c(=S)n1/N=C\c1ccc(-c2ccccc2[N+](=O)[O-])o1`, the TGI with OVCAR-8 ovarian is over 100 µM; with OVCAR-3 ovarian, 46.8 µM; in the experiment with SF-268 CNS it was over 100 µM; in the experiment on SF-295 CNS, over 100 µM; with MDA-MB-231 breast it was over 100 µM; with SW-620 colon it was over 100 µM. In addition, the TGI with NCI/ADR-RES ovarian was 81.5 µM; in the experiment on TK-10 renal, over 100 µM; in the experiment on MCF7 breast, over 100 µM; in the experiment on OVCAR-5 ovarian, over 100 µM; in the experiment on A498 renal, over 100 µM; with K-562 leukemia it was over 100 µM. Further, the TGI with MDA-MB-435 was 39.4 µM.

`CC(C)(CN)SCc1ccccc1`: the TGI in the experiment on OVCAR-8 ovarian, with OVCAR-3 ovarian, in the experiment on SF-268 CNS, with SF-295 CNS, with MDA-MB-231 breast and in the experiment on SW-620 colon was over 100 µM in each case. The TGI in the experiment on NCI/ADR-RES ovarian, in the experiment on TK-10 renal, in the experiment on MCF7 breast, in the experiment on OVCAR-5 ovarian, with A498 renal and with K-562 leukemia was over 100 µM in each case. In the experiment with MDA-MB-435, this molecule registered a TGI of over 100 µM.

On to `COC(=O)[C@@H]1[C@H](O)CC[C@H]2[C@@]1(C)CC[C@@H](C)[C@]2(COC(C)=O)CC(=O)c1ccoc1`, for which the TGI with OVCAR-8 ovarian, in the experiment with OVCAR-3 ovarian, with SF-268 CNS, in the experiment on SF-295 CNS, with MDA-MB-231 breast and with SW-620 colon was over 50 µM throughout. Besides, the TGI in the experiment with NCI/ADR-RES ovarian, with TK-10 renal, with MCF7 breast, with OVCAR-5 ovarian, with A498 renal and with MDA-MB-435 was over 50 µM throughout.

In the case of `CC(Cc1ccc2c(c1)OCO2)N(C)C(=O)C1=CCN(C)CC1` (stereo not given), the TGI with OVCAR-8 ovarian, with OVCAR-3 ovarian, with SF-268 CNS, in the experiment with SF-295 CNS, with MDA-MB-231 breast and in the experiment with SW-620 colon was over 100 µM in each case. Besides, the TGI in the experiment on HCC-2998 colon, in the experiment on NCI/ADR-RES ovarian, in the experiment on TK-10 renal, in the experiment on MCF7 breast, in the experiment with OVCAR-5 ovarian and in the experiment on K-562 leukemia was over 100 µM each time. The molecule also returned a TGI with MDA-MB-435 of over 100 µM.

In the case of `CC(=O)N(C)SCC(NC(=O)C(Cc1ccccc1)NC(=O)OCC1c2ccccc2-c2ccccc21)C(=O)NC(Cc1ccccc1)C(=O)NC(Cc1cn(C=O)c2ccccc12)C(=O)NC(CCCCNC(=O)OCC1c2ccccc2-c2ccccc21)C(=O)NC(C(=O)NC(CSN(C)C(C)=O)C(=O)NC(C(N)=O)C(C)O)C(C)O` (stereo not given) (Fmoc-F[X31]FW(For)K(Fmoc)T[X31]T-NH2; configuration not given here), the TGI in the experiment on OVCAR-8 ovarian was over 100 µM; in the experiment with OVCAR-3 ovarian, over 100 µM; in the experiment with SF-268 CNS it was over 100 µM; in the experiment with SF-295 CNS it was over 100 µM; in the experiment with MDA-MB-231 breast, 51.4 µM; with SW-620 colon, over 100 µM. In addition, the TGI with HCC-2998 colon is over 100 µM; in the experiment with NCI/ADR-RES ovarian, over 100 µM; in the experiment with TK-10 renal, 67.5 µM; with MCF7 breast, over 100 µM; in the experiment on OVCAR-5 ovarian it was over 100 µM; in the experiment with K-562 leukemia, over 100 µM. The TGI in the experiment with MDA-MB-435 is over 100 µM.

As to `CC/C=C/C(/C=C/C[C@]1(CC)C[C@H](CC)[C@H](CC(=O)O)OO1)CC` (stereo not given in full), the TGI in the experiment on OVCAR-8 ovarian was determined as 13.1 µM; with OVCAR-3 ovarian, 4.17 µM; with SF-268 CNS, 9.57 µM; in the experiment with SF-295 CNS, 5.02 µM; in the experiment with MDA-MB-231 breast, 14.3 µM; in the experiment with SW-620 colon it was 5.1 µM. Moreover, the TGI in the experiment on NCI/ADR-RES ovarian is 4.79 µM; in the experiment with TK-10 renal, 3.69 µM; with MCF7 breast it was 6.62 µM; in the experiment on OVCAR-5 ovarian, 7.61 µM; in the experiment on A498 renal it was 28.9 µM; in the experiment with K-562 leukemia, over 29.8 µM. In the experiment with MDA-MB-435, the TGI came out at 4.46 µM.

For the molecule `C=CCC1C2CCC(O[Si](C(C)C)(C(C)C)C(C)C)(C(C(=O)OC)C2)C1O` (stereo not given), the TGI with OVCAR-8 ovarian, in the experiment on OVCAR-3 ovarian, in the experiment on SF-268 CNS, in the experiment with SF-295 CNS, in the experiment on MDA-MB-231 breast and with SW-620 colon was over 100 µM in each case. Besides, the TGI in the experiment with NCI/ADR-RES ovarian, with TK-10 renal, with MCF7 breast, in the experiment with OVCAR-5 ovarian, in the experiment with A498 renal and in the experiment with K-562 leukemia was over 100 µM each time. Besides, the TGI in the experiment on MDA-MB-435 is over 100 µM.

Regarding `Oc1ccccc1-n1nc2ccc3nonc3c2n1`, the TGI with OVCAR-8 ovarian, with OVCAR-3 ovarian, in the experiment with SF-268 CNS, in the experiment with SF-295 CNS, in the experiment on MDA-MB-231 breast and in the experiment on SW-620 colon was over 100 µM in each case. For the same molecule, the TGI in the experiment on HCC-2998 colon, in the experiment with NCI/ADR-RES ovarian, in the experiment on TK-10 renal, in the experiment on MCF7 breast, in the experiment on OVCAR-5 ovarian and in the experiment with K-562 leukemia was over 100 µM each time. Also, the TGI in the experiment with MDA-MB-435 was over 100 µM.

In the case of `CC(Nc1n[nH]c(=O)c2c1nnn2Cc1ccccc1)c1ccccc1` (stereo not given), the GI50 in the experiment on OVCAR-8 ovarian was > 100 µM and 44.5 µM; in the experiment on MDA-MB-231 breast, > 100 µM and 49.8 µM; in the experiment on TK-10 renal, 89.3 µM and 23.4 µM; in the experiment on K-562 leukemia, > 100 µM and 22.8 µM. Besides, the TGI in the experiment with OVCAR-8 ovarian was over 100 µM; with OVCAR-3 ovarian, over 100 µM; with SF-295 CNS, > 100 µM and 61.1 µM; in the experiment with MDA-MB-231 breast, over 100 µM; with HCC-2998 colon it was over 100 µM; in the experiment with NCI/ADR-RES ovarian, over 100 µM. The TGI with TK-10 renal is > 100 µM and 64.7 µM; with MCF7 breast it was over 100 µM; in the experiment on OVCAR-5 ovarian it was over 100 µM; in the experiment with K-562 leukemia, over 100 µM; in the experiment with MDA-MB-435, over 100 µM.
